This assay concerns the target Nanoluciferase-BRD9 fusion protein (3×FLAG-NLuc-BRD9) in SYO-1 cells (Homo sapiens (Human), UniProt Q9H8M2). Description: SYO1 BRD9 NanoLuc degradation assay. To be noted: SYO-1 cells expressing 3×FLAG-NLuc-BRD9, 6 hours incubation, top dose 1 μM. The class given is cell-based. On the procedure:
Procedure: A stable SYO-1 cell line expressing 3×FLAG-NLuc-BRD9 was generated. On day 0 cells were seeded in 30 μL media into each well of 384-well cell culture plates. The seeding density was 8000 cells/well. On day 1, cells were treated with 30 nL DMSO or 30 nL of 3-fold serially DMSO-diluted compounds (10 points in duplicates with 1 μM as final top dose). Subsequently plates were incubated for 6 hours in a standard tissue culture incubator and equilibrated at room temperature for 15 minutes. Nanoluciferase activity was measured by adding 15 μL of freshly prepared Nano-Glo Luciferase Assay Reagent (Promega N1130), shaking the plates for 10 minutes and reading the bioluminescence using an EnVision reader.
Results: The Inhibition % was calculated using the following formula: % Inhibition=100×(LumHC−LumSample)/(LumHC−LumLC). DMSO treated cells are employed as High Control (HC) and 1 μM of a known BRD9 degrader standard treated cells are employed as Low Control (LC).
Chain of Nanoluciferase-BRD9 fusion protein (3×FLAG-NLuc-BRD9) in SYO-1 cells (Q9H8M2 whole entry, the tested form may be a part): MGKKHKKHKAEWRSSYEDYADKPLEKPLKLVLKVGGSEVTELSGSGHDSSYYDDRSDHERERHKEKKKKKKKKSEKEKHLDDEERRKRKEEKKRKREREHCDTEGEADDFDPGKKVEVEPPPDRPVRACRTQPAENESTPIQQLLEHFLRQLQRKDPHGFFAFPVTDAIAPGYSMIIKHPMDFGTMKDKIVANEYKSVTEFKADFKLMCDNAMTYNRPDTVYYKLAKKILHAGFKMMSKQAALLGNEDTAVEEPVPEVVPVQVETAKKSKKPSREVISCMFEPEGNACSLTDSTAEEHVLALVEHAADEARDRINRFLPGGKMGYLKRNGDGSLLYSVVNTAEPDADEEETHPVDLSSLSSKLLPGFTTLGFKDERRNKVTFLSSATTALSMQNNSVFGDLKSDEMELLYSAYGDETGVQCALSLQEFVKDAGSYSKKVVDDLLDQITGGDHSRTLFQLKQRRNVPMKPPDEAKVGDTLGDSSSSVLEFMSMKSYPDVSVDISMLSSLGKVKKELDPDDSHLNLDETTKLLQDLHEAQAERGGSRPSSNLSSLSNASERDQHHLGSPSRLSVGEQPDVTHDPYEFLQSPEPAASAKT
`CNC(=O)N1CCc2c(-c3cc(OC)c(CN4CCC(CCN5CCN(c6cc7c(cc6F)C(=O)N(C6CCC(=O)NC6=O)C7=O)CC5)CC4)c(OC)c3)cn(C)c(=O)c2C1` (stereo not drawn) [Compound D88] displayed an IC50 of under 10 nM.

`COc1cc(-c2cn(C)c(=O)c3c2CCN(C(=O)NCCCCCCCCNc2cccc4c2CN(C2CCC(=O)NC2=O)C4=O)C3)cc(OC)c1CN1CCC1` (stereo not drawn) [Compound D89] gave an IC50 of under 10 nM.

For the compound `COc1cc(-c2cn(C)c(=O)c3c2CCN(C(=O)NCCCCCOc2cccc4c2C(=O)N(C2CCC(=O)NC2=O)C4=O)C3)cc(OC)c1CN1CCC1` (stereo not drawn) [Compound D90], the IC50 was in the range of 10 to 100 nM.

Compound `CNC(=O)N1CCc2c(-c3cc(F)c(CN4CCC(CCN5CCN(c6ccc7c(c6)C(=O)N(C6CCC(=O)NC6=O)C7=O)CC5)CC4)c(OC)c3)cn(C)c(=O)c2C1` (stereo not drawn) [Compound D91] showed an IC50 of under 10 nM.

`CNC(=O)N1CCc2c(-c3cnc(CN4CCC(CCN5CCN(c6ccc7c(c6)C(=O)N(C6CCC(=O)NC6=O)C7=O)CC5)CC4)c(OC)c3)cn(C)c(=O)c2C1` (stereo not drawn) [Compound D92] gave an IC50 of 10 to 100 nM.

The compound `CNC(=O)N1CCc2c(-c3cc(OC)c(CN4CCN(CCC5CCN(c6ccc7c(c6)C(=O)N(C6CCC(=O)NC6=O)C7=O)CC5)C(C#N)C4)c(OC)c3)cn(C)c(=O)c2C1` (stereo not drawn) [Compound D93] registered an IC50 of under 10 nM.

Compound `CNC(=O)N1CCc2c(-c3cc(OC)c(CN4CCN(CCC5CCN(c6ccc7c(c6)C(=O)N(C6CCC(=O)NC6=O)C7=O)CC5)C5(CCC5)C4)c(OC)c3)cn(C)c(=O)c2C1` (stereo not drawn) [Compound D95] displayed an IC50 of under 10 nM.

In the case of `CNC(=O)N1CCc2c(-c3cc(OC)c(CN4CCN(CCC5CCN(c6ccc7c(c6)C(=O)N(C6CCC(=O)NC6=O)C7=O)CC5)C5CC54)c(OC)c3)cn(C)c(=O)c2C1` (stereo not drawn) [Compound D96], the IC50 was under 10 nM.

As for `CNC(=O)N1CCc2c(-c3cc(OC)c(CN4CCN(CCC5CCN(c6ccc7c(c6)C(=O)N(C6CCC(=O)NC6=O)C7=O)CC5)CC45COC5)c(OC)c3)cn(C)c(=O)c2C1` (stereo not drawn) [Compound D98], the IC50 is under 10 nM.

The compound `CNC(=O)N1CCc2c(-c3cc(OC)c(CN4CCN(CCC5CCN(c6ccc7c(c6)C(=O)N(C6CCC(=O)NC6=O)C7=O)CC5)CC4C)c(OC)c3)cn(C)c(=O)c2C1` (stereo not drawn) [Compound D99] returned an IC50 of under 10 nM.

Compound `CNC(=O)N1CCc2c(-c3cc(OC)c(CN4CCN(CCC5CCN(c6ccc7c(c6)C(=O)N(C6CCC(=O)NC6=O)C7=O)CC5)C(C)C4)c(OC)c3)cn(C)c(=O)c2C1` (stereo not drawn) [Compound D100] came in with an IC50 of under 10 nM.

Take `CNC(=O)N1CCc2c(-c3cc(OC)c(CN4CCN(CCC5CCN(c6ccc7c(c6)C(=O)N(C6CCC(=O)NC6=O)C7=O)CC5)CC4(C)C)c(OC)c3)cn(C)c(=O)c2C1` (stereo not drawn) [Compound D102]: the IC50 was under 10 nM.

`CNC(=O)N1CCc2c(-c3cc(OC)c(CN4CCN(CCC5CCN(c6ccc7c(c6)C(=O)N(C6CCC(=O)NC6=O)C7=O)CC5)C(COC)C4)c(OC)c3)cn(C)c(=O)c2C1` (stereo not drawn) [Compound D103] came in with an IC50 of under 10 nM.

Consider `CNC(=O)N1CCc2c(-c3cc(OC)c(CN4CCN(CCC5CCN(c6ccc7c(c6)C(=O)N(C6CCC(=O)NC6=O)C7=O)CC5)CC4C(F)F)c(OC)c3)cn(C)c(=O)c2C1` (stereo not drawn) [Compound D104], for which the IC50 is under 10 nM.

In the case of `[2H]C1([2H])N(CCC2CCN(c3ccc4c(c3)C(=O)N(C3CCC(=O)NC3=O)C4=O)CC2)C([2H])([2H])C([2H])([2H])N(Cc2c(OC)cc(-c3cn(C)c(=O)c4c3CCN(C(=O)NC)C4)cc2OC)C1([2H])[2H]` (stereo not drawn) [Compound D105], the IC50 was under 10 nM.

Regarding `CNC(=O)N1CCc2c(-c3cc(OC)c(C(C)N4CCC(CN5CCC6(CC5)CC(Oc5ccc7c(c5)C(=O)N(C5CCC(=O)NC5=O)C7=O)C6)CC4)c(OC)c3)cn(C)c(=O)c2C1` (stereo not drawn) [Compound D106], the concentration for half-maximal inhibition (IC50) was under 10 nM.

In turn, `CNC(=O)N1CCc2c(-c3cc(OC)c(CN4CC(C(C)N5CCC6(CC5)CN(c5ccc7c(c5)C(=O)N(C5CCC(=O)NC5=O)C7=O)C6)C4)c(OC)c3)cn(C)c(=O)c2C1` (stereo not drawn) [Compound D107] yielded an IC50 of under 10 nM.

Compound `CNC(=O)N1CCc2c(-c3cc(OC)c(CN4CC(CN5CCC6(CC5)CN(c5ccc7c(c5)C(=O)N(C5CCC(=O)NC5=O)C7=O)C6)C4)c(OC)c3)cn(C)c(=O)c2C1` (stereo not drawn) [Compound D109] had an IC50 of under 10 nM.

The compound `COc1cc(-c2cn(C)c(=O)c3c2CCN(C(=O)NCC2CC4(CCN(c5ccc6c(c5)C(=O)N(C5CCC(=O)NC5=O)C6=O)CC4)C2)C3)cc(OC)c1CN(C)C` (stereo not drawn) [Compound D110] yielded an IC50 of under 10 nM.

In turn, `CNC(=O)N1CCc2c(-c3cc(OC)c(CNc4ccc5c(c4)C(=O)N(C4CCC(=O)NC4=O)C5=O)c(OC)c3)cn(C)c(=O)c2C1` (stereo not drawn) [Compound D111] showed an IC50 of 10 to 100 nM.

With `CNC(=O)N1CCc2c(-c3cc(OC)c(CN(C)c4ccc5c(c4)C(=O)N(C4CCC(=O)NC4=O)C5=O)c(OC)c3)cn(C)c(=O)c2C1` (stereo not drawn) [Compound D112], the IC50 was under 10 nM.

As for `CNC(=O)N1CCc2c(-c3cc(OC)c(CN4CCC(CCN5CCC(c6ccc7c(c6)C(=O)N(C6CCC(=O)NC6=O)C7=O)CC5)CC4)c(OC)c3)cn(C)c(=O)c2C1` (stereo not drawn) [Compound D113], the half-maximal inhibitory concentration (IC50) is under 10 nM.

Turning to `CNC(=O)N1CCc2c(-c3cc(OC)c(CN4CCC(C(C)(C)N5CCC6(CC5)CC(Oc5ccc7c(c5)C(=O)N(C5CCC(=O)NC5=O)C7=O)C6)CC4)c(OC)c3)cn(C)c(=O)c2C1` (stereo not drawn) [Compound D114], the IC50 was under 10 nM.

`COc1cc(-c2cn(C)c(=O)c3c2CCN(C(=O)NCC2CC4(C2)CN(c2ccc5c(c2)C(=O)N(C2CCC(=O)NC2=O)C5=O)C4)C3)cc(OC)c1CN(C)C` (stereo not drawn) [Compound D115]: the IC50 was under 10 nM.

`CNC(=O)N1CCc2c(-c3cc(OC)c(CN4CC(Oc5ccc6c(c5)C(=O)N(C5CCC(=O)NC5=O)C6=O)C4)c(OC)c3)cn(C)c(=O)c2C1` (stereo not drawn) [Compound D116]: the IC50 is under 10 nM.

As to `CNC(=O)N1CCc2c(-c3cc(OC)c(CN4CCN(CCN5CCC(c6ccc7c(c6)C(=O)N(C6CCC(=O)NC6=O)C7=O)CC5)CC4)c(OC)c3)cn(C)c(=O)c2C1` (stereo not drawn) [Compound D117], the IC50 was under 10 nM.

As to `CNC(=O)N1CCc2c(-c3cc(OC)c(CN4CCC(CCN5CCN(c6ccc7c(c6)C(=O)N(C6CCC(=O)NC6=O)C7=O)CC5)CC4)c(OC)c3)cn(C3CC3)c(=O)c2C1` (stereo not drawn) [Compound D118], the IC50 is under 10 nM.

`COc1cc(-c2cn(C)c(=O)c3c2CCN(C(=O)NC2CCC4CN(c5ccc6c(c5)C(=O)N(C5CCC(=O)NC5=O)C6=O)CC42)C3)cc(OC)c1CN(C)C` (stereo not drawn) [Compound D119] showed an IC50 of under 10 nM.

With `COc1cc(-c2cn(C)c(=O)c3c2CCN(C(=O)NCC2CCC4(CCN(c5ccc6c(c5)C(=O)N(C5CCC(=O)NC5=O)C6=O)CC4)O2)C3)cc(OC)c1CN(C)C` (stereo not drawn) [Compound D120], the IC50 is 100 to 1000 nM.

`COc1cc(-c2cn(C)c(=O)c3c2CCN(C(=O)NCC2COC4(CCN(c5ccc6c(c5)C(=O)N(C5CCC(=O)NC5=O)C6=O)CC4)C2)C3)cc(OC)c1CN(C)C` (stereo not drawn) [Compound D121] gave an IC50 of under 10 nM.

Turning to `COc1cc(-c2cn(C)c(=O)c3c2CCN(C(=O)NCC2CC4CN(c5ccc6c(c5)C(=O)N([C@H]5CCC(=O)NC5=O)C6=O)CC4C2)C3)cc(OC)c1CN(C)C` (stereo partly drawn) [Compound D122], the IC50 was in the range of 10 to 100 nM.

`COc1cc(-c2cn(C)c(=O)c3c2CCN(C(=O)NCC2CC4CN(c5ccc6c(c5)C(=O)N([C@@H]5CCC(=O)NC5=O)C6=O)CC4C2)C3)cc(OC)c1CN(C)C` (stereo partly drawn) [Compound D123] displayed a 50% inhibitory concentration (IC50) of under 10 nM.

Compound `CNC(=O)N1CCc2c(-c3cc(OC)c(CN4CC(C(C)(C)N5CCC6(CC5)CN(c5ccc7c(c5)C(=O)N(C5CCC(=O)NC5=O)C7=O)C6)C4)c(OC)c3)cn(C)c(=O)c2C1` (stereo not drawn) [Compound D124] yielded an IC50 of under 10 nM.

`CNC(=O)N1CCc2c(-c3cc(OC)c(CN4CCC(CN(C(C)C)C5CC(Oc6ccc7c(c6)C(=O)N(C6CCC(=O)NC6=O)C7=O)C5)CC4)c(OC)c3)cn(C)c(=O)c2C1` (stereo not drawn) [Compound D125] gave an IC50 of under 10 nM.

As for `CNC(=O)N1CCc2c(-c3cc(OC)c(CN4CC5(CCN(C(C)(C)C#Cc6ccc7c(c6)C(=O)N(C6CCC(=O)NC6=O)C7=O)CC5)C4)c(OC)c3)cn(C)c(=O)c2C1` (stereo not drawn) [Compound D126], the IC50 is 100 to 1000 nM.

Turning to `CNC(=O)N1CCc2c(-c3cc(OC)c(CN4CCC(=CCN5CCN(c6ccc7c(c6)C(=O)N(C6CCC(=O)NC6=O)C7=O)CC5)CC4)c(OC)c3)cn(C)c(=O)c2C1` (stereo not drawn) [Compound D127], the IC50 is under 10 nM.

For the compound `CNC(=O)N1CCc2c(-c3cc(OC)c(CN4CCC(C(C)N5CCC6(CC5)CC(Oc5ccc7c(c5)C(=O)N(C5CCC(=O)NC5=O)C7=O)C6)CC4)c(OC)c3)cn(C)c(=O)c2C1` (stereo not drawn) [Compound D128], the IC50 was under 10 nM.

Consider `CNC(=O)N1CCc2c(-c3cc(OC)c(CN4CC5CC4CC5CN4CCN(c5ccc6c(c5)C(=O)N(C5CCC(=O)NC5=O)C6=O)CC4)c(OC)c3)cn(C)c(=O)c2C1` (stereo not drawn) [Compound D129], for which the IC50 is 10 to 100 nM.

As to `CNC(=O)N1CCc2c(-c3cc(OC)c(CC4CCN(CCN5CCN(c6ccc7c(c6)C(=O)N(C6CCC(=O)NC6=O)C7=O)CC5)CC4)c(OC)c3)cn(C)c(=O)c2C1` (stereo not drawn) [Compound D130], the IC50 is under 10 nM.

Compound `CNC(=O)N1CCc2c(-c3cc(OC)c(CN4CCN(c5ccc6c(c5)C(=O)N(C5CCC(=O)NC5=O)C6=O)CC4)c(OC)c3)cn(C)c(=O)c2C1` (stereo not drawn) [Compound D131] showed an IC50 of under 10 nM.

As to `CNC(=O)N1CCc2c(-c3cc(OC)c(CN4CC(N5CCN(c6ccc7c(c6)C(=O)N(C6CCC(=O)NC6=O)C7=O)CC5)C4)c(OC)c3)cn(C)c(=O)c2C1` (stereo not drawn) [Compound D132], the IC50 is under 10 nM.

`CNC(=O)N1CCc2c(-c3cc(OC)c(CN4CCC(CN5CCC6(CC5)CN(c5ccc7c(c5)C(=O)N(C5CCC(=O)NC5=O)C7=O)C6)CC4)c(OC)c3)cn(C)c(=O)c2C1` (stereo not drawn) [Compound D136] returned an IC50 of under 10 nM.

The values are drawn from patent US12384776B2, “Compounds and uses thereof” (Foghorn Therapeutics Inc., priority 2019, dated 2025).
